Reference: patent US20020156084A1, “Use of N-benzyl piperazine and analogues as quality of life enhancers” (priority 2001, published 2002)

Test: Administration of N-Benzyl Piperazine (appetite suppressant / anti-depressant effect)
Format: in vivo
Settings: administration of the compound; no test details given
Description: This Patent description is of the use of N-Benzyl Piperazine and Analogues as Quality of Life Enhancers. Administration of N-Benzyl Piperazine has shown to be effective as an appetite suppressant and as a mild anti-depressant. Yeah though it be known that N-Benzyl Piperazine is a CNS stimulant and that stimulants usually are appetite suppressants, it was unknown and unobvious that the binding affinities for the serotonin receptor would be in “perfect” harmony with the norepinephrine receptor to eliminate the side effects of nervousness and the like. It was also unobvious that the increased levels of serotonin and norepinephrine would facilitate individuals in their daily lives to accomplish goals. That is why it is referred to as a Quality of Life Enhancer. Quality of Life Enhancer is defined as a weight loss supplement, appetite suppressant, anti-depressant, cognition enhancer or diet supplement.
Administration of the compounds is usually in the form of their pharmaceutically acceptable acid addition salts. Doses are within the range if 10 mg to 300 mg per day, but usually are in pills of 75 mg two times a day. Once desired effect is attained 75 mg per day is sufficient.

For c1ccc(CN2CCNCC2)cc1 [N-Benzyl Piperazine, 1-benzylpiperazine], which “effectiveness as a mild anti-depressant” value is on record?
Its value is “effective”.
